Laboratory results: US12729377B2, “RNAi agents and compositions for inhibiting expression of angiopoietin-like 3 (ANGPTL3), and methods of use” (Arrowhead Pharmaceuticals, Inc., priority 2017, dated 2026)
In the oligonucleotide strings, read from the 5' end, every base follows the letter of its sugar. An asterisk marks phosphorothioate; unmarked linkages are phosphodiester. Other units and linkages are bracketed, terminal groups are in braces. A string of capitals states the bases alone. {NAG37} = tridentate N-acetyl-galactosamine targeting ligand, structure (NAG37)s; [invAb] = inverted abasic unit; m = 2'-O-methyl; f = 2'-fluoro

Key:
ANGPTL3 gene [1] = test: Example 14: RNAi agent and statin, serum LDL in LDLR knockout mice; format: in vivo, LDLR KO mice
Excerpt: To evaluate the effect of co-administration of RNAi agents and statins in a disease model, LDLR KO mice were commercially obtained (The Jackson Laboratory). For three weeks prior to the onset of the study, forty-one (41) male 7 to 8 week old LDLR KO mice were placed on a high fat (“western”) diet (Teklad Custom Diets TD.88137), and remained on that diet throughout the duration of the study. Pre-dose serum samples were taken on study Day 1 after a four hour fast. The dosing regimen for the study is recited in the following Table 72:
• Mice were treated at 40 mg/kg for the first 11 days, then switched to 20 mg/kg thereafter.
The vehicle used for the oral gavage in the study was a 1:1 mixture of Ora-Plus®: Ora-Sweet® solution, which were acquired commercially. For the preparation of the atorvastatin oral gavage administrations, the respective desired dose of atorvastatin was first dissolved in sterile water (0.3 mL water per 1 mL of desired formulation) and vortexed until smooth, followed by the addition of a mixture of 1:1 Ora-Plus®: Ora-Sweet® solution (0.7 mL vehicle per 1 mL of desired formulation) and vortexed. On day 1 and for each day thereafter an oral gavage dose was administered for each of the Groups except for Group 2. On Day 23, Groups 1, 2, 3, and 4 received a single subcutaneous administration of 2.5 mg/kg dose ([…] solution) of an ANGPTL3 RNAi agent in D5W (dextrose in 5% water), or vehicle control (D5W) with no RNAi agent.
The RNAi agent tested (AD05488) included a modified sequence and an N-acetyl-galactosamine-containing targeting ligand conjugated to the 5′ terminal end of the sense strand. (See Tables 3, 4, and 5 for modified sequences and targeting ligand structures). The injections were performed between the skin and muscle (i.e. subcutaneous injections) into the loose skin over the neck and shoulder area. Serum was collected on days 8, 15, 22 (pre-RNAi agent injection), 29, 36, 43, and 50. LDLR KO mice were fasted for four hours prior to each collection.
ANGPTL3 protein levels in serum were measured by ELISA assay (R&D Systems), according to the manufacturer's recommendations. Among other biomarkers, triglycerides, total cholesterol, and low-density lipoprotein (LDL) in serum were measured on a Cobas® Integra 400 (Roche Diagnostics), according to the manufacturer's recommendations.
The ANGPTL3 protein levels, triglyceride levels, total cholesterol levels, HDL levels, and LDL levels for each animal were normalized. For normalization, respective levels of ANGPTL3 protein, TG, total cholesterol, or LDL for each animal at a time point was divided by the pre-treatment level of expression in that animal (in this case pre-dose levels on Day 1) to determine the ratio of expression “normalized to pre-treatment.” Data from the study set forth in this Example are shown in the following Tables 73-76: […]

ANGPTL3 gene [2] = test: Example 13: serum triglycerides in HFCS diet-fed Rhesus monkeys; format: in vivo; settings: for Avg TG (Triglycerides) Normalized to Pre-Treatment (Fasted): 4.0 mg/kg sc on day 1 and day 29
Method: ANGPTL3 RNAi agent AD05488 was further evaluated in high-fructose corn syrup (HFCS) diet-fed Rhesus monkeys. Rhesus monkeys were placed on an HFCS diet 37 days prior to dosing. These animals were known to develop increased plasma triglycerides greater than 180 mg/dL on the HFCS diet. On day 1 and again on day 29, four (4) Rhesus monkeys were administered a subcutaneous injection containing 4.0 mg/kg of ANGPTL3 RNAi agent AD05488 formulated in saline (n=4). Two additional Rhesus monkeys were administered normal saline control.
Fasted blood samples were drawn for analysis, and serum samples were analyzed on days-8 (predose), 8, 15, 21, 29, and 36. ANGPTL3 expression levels, triglycerides, total cholesterol, high-density lipoprotein (HDL), and low-density lipoprotein (LDL) in serum were measured on a Cobas® Integra 400 (Roche Diagnostics), according to the manufacturer's recommendations.
The ANGPTL3 protein levels, triglyceride levels, total cholesterol levels, HDL levels, and LDL levels for each animal were normalized. For normalization, the level of ANGPTL3 protein, triglyceride, HDL, and total cholesterol, respectively, for each animal at a time point, was divided by the pre-treatment level of expression in that animal (in this case at day −8) to determine the ratio of expression “normalized to pre-treatment.”

AD05488: RNAi agent duplex: antisense AM07235-AS, sense AM07234-SS (antisense mU*fA*mC*fUmGfAmUfCmAfAmAfUmAfUmGfUmUfGmAfG*mC; sense {NAG37}*[invAb]*mGmCmUmCmAmAmCmAfUfAfUmUmUmGmAmUmCmAmGmUmA*[invAb])
Avg LDL normalized to pre-treatment (ANGPTL3 gene [1]; Group 2: no gavage, 2.5 mg/kg AD05488 SC on day 23, Day 8 (pre-RNAi agent injection)): 0.893 | Avg LDL normalized to pre-treatment (ANGPTL3 gene [1]; Group 2: no gavage, 2.5 mg/kg AD05488 SC on day 23, Day 15 (pre-RNAi agent injection)): 1.051 | Avg LDL normalized to pre-treatment (ANGPTL3 gene [1]; Group 2: no gavage, 2.5 mg/kg AD05488 SC on day 23, Day 22 (pre-RNAi agent injection)): 1.113 | Avg LDL normalized to pre-treatment (ANGPTL3 gene [1]; Group 2: no gavage, 2.5 mg/kg AD05488 SC on day 23, Day 29): 0.653 | Avg LDL normalized to pre-treatment (ANGPTL3 gene [1]; Group 2: no gavage, 2.5 mg/kg AD05488 SC on day 23, Day 36): 0.492 | Avg LDL normalized to pre-treatment (ANGPTL3 gene [1]; Group 2: no gavage, 2.5 mg/kg AD05488 SC on day 23, Day 43): 0.443 | Avg LDL normalized to pre-treatment (ANGPTL3 gene [1]; Group 2: no gavage, 2.5 mg/kg AD05488 SC on day 23, Day 50): 0.480 | Avg LDL normalized to pre-treatment (ANGPTL3 gene [1]; Group 3: 10 mg/kg daily oral gavage atorvastatin, 2.5 mg/kg AD05488 on day 23, Day 8 (pre-RNAi agent injection)): 0.692 | Avg LDL normalized to pre-treatment (ANGPTL3 gene [1]; Group 3: 10 mg/kg daily oral gavage atorvastatin, 2.5 mg/kg AD05488 on day 23, Day 15 (pre-RNAi agent injection)): 0.537 | Avg LDL normalized to pre-treatment (ANGPTL3 gene [1]; Group 3: 10 mg/kg daily oral gavage atorvastatin, 2.5 mg/kg AD05488 on day 23, Day 22 (pre-RNAi agent injection)): 0.659 | Avg LDL normalized to pre-treatment (ANGPTL3 gene [1]; Group 3: 10 mg/kg daily oral gavage atorvastatin, 2.5 mg/kg AD05488 on day 23, Day 29): 0.422 | Avg LDL normalized to pre-treatment (ANGPTL3 gene [1]; Group 3: 10 mg/kg daily oral gavage atorvastatin, 2.5 mg/kg AD05488 on day 23, Day 36): 0.312 | Avg LDL normalized to pre-treatment (ANGPTL3 gene [1]; Group 3: 10 mg/kg daily oral gavage atorvastatin, 2.5 mg/kg AD05488 on day 23, Day 43): 0.264 | Avg LDL normalized to pre-treatment (ANGPTL3 gene [1]; Group 3: 10 mg/kg daily oral gavage atorvastatin, 2.5 mg/kg AD05488 on day 23, Day 50): 0.256 | Avg LDL normalized to pre-treatment (ANGPTL3 gene [1]; Group 4: 20 mg/kg* daily oral gavage atorvastatin (40 mg/kg first 11 days), 2.5 mg/kg AD05488 on day 23, Day 8 (pre-RNAi agent injection)): 0.572 | Avg LDL normalized to pre-treatment (ANGPTL3 gene [1]; Group 4: 20 mg/kg* daily oral gavage atorvastatin (40 mg/kg first 11 days), 2.5 mg/kg AD05488 on day 23, Day 15 (pre-RNAi agent injection)): 0.515 | Avg LDL normalized to pre-treatment (ANGPTL3 gene [1]; Group 4: 20 mg/kg* daily oral gavage atorvastatin (40 mg/kg first 11 days), 2.5 mg/kg AD05488 on day 23, Day 22 (pre-RNAi agent injection)): 0.755 | Avg LDL normalized to pre-treatment (ANGPTL3 gene [1]; Group 4: 20 mg/kg* daily oral gavage atorvastatin (40 mg/kg first 11 days), 2.5 mg/kg AD05488 on day 23, Day 29): 0.434 | Avg LDL normalized to pre-treatment (ANGPTL3 gene [1]; Group 4: 20 mg/kg* daily oral gavage atorvastatin (40 mg/kg first 11 days), 2.5 mg/kg AD05488 on day 23, Day 36): 0.240 | Avg LDL normalized to pre-treatment (ANGPTL3 gene [1]; Group 4: 20 mg/kg* daily oral gavage atorvastatin (40 mg/kg first 11 days), 2.5 mg/kg AD05488 on day 23, Day 43): 0.217 | Avg LDL normalized to pre-treatment (ANGPTL3 gene [1]; Group 4: 20 mg/kg* daily oral gavage atorvastatin (40 mg/kg first 11 days), 2.5 mg/kg AD05488 on day 23, Day 50): 0.242 | total reductions in LDL (ANGPTL3 gene [1]; co-administration of atorvastatin and RNAi agent (Groups 3 and 4), LDLR KO mice on high fat diet): ~ 80% | reductions in triglyceride levels (ANGPTL3 gene [2]; 4.0 mg/kg on days 1 and 29, HFCS diet-fed Rhesus monkeys): reductions | Avg TG (Triglycerides) Normalized to Pre-Treatment (Fasted) (ANGPTL3 gene [2]; Day 8): 0.351 | Avg TG (Triglycerides) Normalized to Pre-Treatment (Fasted) (ANGPTL3 gene [2]; Day 15): 0.244 | Avg TG (Triglycerides) Normalized to Pre-Treatment (Fasted) (ANGPTL3 gene [2]; Day 21): 0.233 | Avg TG (Triglycerides) Normalized to Pre-Treatment (Fasted) (ANGPTL3 gene [2]; Day 29): 0.302 | Avg TG (Triglycerides) Normalized to Pre-Treatment (Fasted) (ANGPTL3 gene [2]; Day 36): 0.177
